Patent US10703733B2, “MCL-1 inhibitors” (Gilead Sciences, Inc., priority 2018, dated 2020)
Read-outs that look alike come from different tables or passages of the source.

Experiments:
SKBR3 cells = test: SKBR3 Cell Viability Assay (CellTiter Glo); type: cell-based; settings: CellTiter Glo luminescence, read-out: MCL-1 CV SKBR3 EC50
Description: SKBR3 Cell Viability Assay Materials
SKBR3 Cells (ATCC HTB-30) were obtained from ATCC (Manassas, Va.) and cultured in McCoy 5A's medium (ATCC 30-2007)+10% fetal bovine serum (SH30071.03, HyClone, Pittsburgh, Pa.) plus 1× Penicillin-Streptomycin L-glutamine (Corning 30-009-C1, Corning, N.Y.)).
The cell viability assay was conducted in a 384-well tissue culture plate (Grenier 781086, Monroe, N.C.) in a total volume of 70 μL. Test compounds were prepared in 1,000×, serially diluted, and pre-spotted into 384-well tissue culture plate by Echo 555 Liquid Handler (Labcyte Inc., San Jose, Calif.). Seventy μl of 6,000 SKBR3 cells were dispensed into each well of the plate and incubated at 37° C. with 5% CO2 for 72 hours. At the end of incubation, 2× CellTiter Glo (CTG) reagents (1 part buffer with 2 parts substrate) (Promega, Madison, Wis.) were prepared, and the plate and the reagent were equilibrated to room temperature for 30 minutes. CTG reagent was added to each plate by Biomek FX at 20 μL/well with 5 times pipetting and mixing to induce cell lysis. Luminescence was read by Envision multimode reader (PerkinElmer). […] Percent inhibition was calculated as followed: % Inhibition=100%*(Well−Neg)/(Pos−Neg) Neg, negative control, DMSO Pos, positive control, 10 μM Puromycin

[1] = biological target: MCL-1/Bim interaction (recombinant human MCL-1 protein, residues 171-327; biotinylated human Bim peptide, residues 51-76) (Homo sapiens (Human), UniProt Q07820); test: MCL-1/Bim Binding AlphaLISA Assay; settings: 0.0625 nM 6xHis-Mcl-1 (171-327), 0.0625 nM biotinylated-Bim peptide
Description: MCL-1/Bim Binding AlphaLISA Assay.
Inhibition of the MCL-1 and Bim interaction was measured in the following AlphaLISA assay.
Recombinant human MCL-1 protein (C-terminal 6×His Tagged Mcl-1 containing residues 171-327) was generated at Gilead Sciences, Inc. (Foster City, Calif.). A biotinylated peptide derived from human Bim (residues 51-76) was purchased from CPC Scientific (Sunnyvale, Calif.). (CPC 834113). AlphaLISA anti-6His-acceptor beads (AL128R), AlphaScreen Streptavidin donor beads (6760002B), and Proxiplate-384 Plus (6008289) were purchased from PerkinElmer.
The AlphaLISA assay was performed in a 384-well Proxiplate in a total volume of […]. The reaction mixture contained 0.0625 nM 6×His-Mcl-1 (171-327), 0.0625 nM biotinylated-Bim peptide, 10 μg/mL AlphaLISA anti-6×His-AlphaLISA acceptor beads, […] AlphaScreen streptavidin donor beads, and serially diluted test compounds in the binding buffer (20 mM Hepes, pH 7.5 (Teknova H1035); 150 mM NaCl (Promega V4221); 0.002% Brij 35 (Thermo Scientific 20150); 1 mM Dithiothreitol (DTT) Solution (Affymetrix 70726); 0.01% BSA (BioLabs B9000S)). 1,000×test compounds were pre-spotted onto 384-well Proxiplate (Labcyte Echo) by Echo 555 Liquid Handler (Labcyte Inc., San Jose, Calif.) followed by incubation of 5 μl Mcl-1(171-327) for 1 hour. Then 5 μL Bim (51-76) was added and incubated for 2 hours. Five μL AlphaLISA anti-6His-AlphaLISA acceptor beads were then added for 1 hour followed by addition of 5 μL AlphaScreen streptavidin donor beads for 1 hour. The reaction plates were then read on an Envision multimode reader (PerkinElmer) using AlphaScreen settings. […] Percent inhibition was calculated as shown below: % Inhibition=100%*(Well−Neg)/(Pos−Neg) Neg: negative control, DMSO Pos: positive control, no Mcl-1 protein, no biotinylated-Bim peptide

MCL-1/Bim interaction (recombinant human MCL-1 protein, residues 171-327; biotinylated human Bim peptide, residues 51-76), sequence (Q07820 171-327): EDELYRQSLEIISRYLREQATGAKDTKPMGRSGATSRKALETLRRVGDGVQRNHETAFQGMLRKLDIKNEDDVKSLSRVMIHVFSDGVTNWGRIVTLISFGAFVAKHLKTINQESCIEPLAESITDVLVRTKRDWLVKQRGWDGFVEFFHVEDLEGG

Row | Compound | EC50 (SKBR3 cells; 72 hours) | IC50 [1] | EC50 (SKBR3 cells; Homo sapiens, SK-BR-3, 72 h)
1 | CCC(=O)NS1(=O)=NC(=O)c2ccc3c(c2)N(C[C@@H]2CC[C@H]2[C@@H](OC)/C=C/CCC1)C[C@@]1(CCCc2cc(Cl)ccc21)CO3 (single isomer, unassigned) [Example 4] | 899 nM |  | 
2 | COCC(=O)NS1(=O)=NC(=O)c2ccc3c(c2)N(C[C@@H]2CC[C@H]2[C@@H](OC)/C=C/CCC1)C[C@@]1(CCCc2cc(Cl)ccc21)CO3 (single isomer, unassigned) [Example 7] | 4800 nM | 1.2 nM | 
3 | CO[C@H]1/C=C/CCCS(=O)(NC(=O)CCn2ccnn2)=NC(=O)c2ccc3c(c2)N(C[C@@H]2CC[C@H]21)C[C@@]1(CCCc2cc(Cl)ccc21)CO3 (single isomer, unassigned) [Example 54] |  | 0.2 nM | 3810 nM
4 | CCC(=O)NS1(=O)=NC(=O)c2ccc3c(c2)N(C[C@@H]2CC[C@H]2[C@@H](OC)/C=C/CC[C@H]1CC)C[C@@]1(CCCc2cc(Cl)ccc21)CO3 (single isomer, unassigned) [Example 65] | 1970 nM | 1.8 nM | 
5 | CCC(=O)N[S@@]1(=O)=NC(=O)c2ccc3c(c2)N(C[C@@H]2CC[C@H]2[C@@H](OCCN2CCOCC2)/C=C/CCC1)C[C@@]1(CCCc2cc(Cl)ccc21)CO3 (single isomer, unassigned) [Example 67] |  | 1.2 nM | 1040 nM
6 | CC[C@@H]1CC/C=C/[C@H](OC)[C@@H]2CC[C@H]2CN2C[C@@]3(CCCc4cc(Cl)ccc43)COc3ccc(cc32)C(=O)N=S1(=O)NC(=O)CCc1ccnn1C (single isomer, unassigned) [Example 71] | 1390 nM | 0.7 nM | 
7 | CO[C@H]1/C=C/C[C@H](C)C[S@@](=O)(NC(=O)[C@H]2CCc3cnn(C)c3C2)=NC(=O)c2ccc3c(c2)N(C[C@@H]2CC[C@H]21)C[C@@]1(CCCc2cc(Cl)ccc21)CO3 (single isomer, unassigned) [Example 141] |  | 0.086 nM | 65.3 nM
8 | CO[C@H]1/C=C/C[C@H](C)C[S@@](=O)(NC(=O)[C@H]2Cc3ccccc3CO2)=NC(=O)c2ccc3c(c2)N(C[C@@H]2CC[C@H]21)C[C@@]1(CCCc2cc(Cl)ccc21)CO3 (single isomer, unassigned) [Example 143] |  | 0.173 nM | 219 nM
9 | CO[C@H]1/C=C/C[C@H](C)C[S@@](=O)(NC(=O)N[C@@H]2C[C@H]2c2cnn(C)c2)=NC(=O)c2ccc3c(c2)N(C[C@@H]2CC[C@H]21)C[C@@]1(CCCc2cc(Cl)ccc21)CO3 (single isomer, unassigned) [Example 183] | 195 nM | 0.132 nM | 
10 | CO[C@H]1/C=C/C[C@H](C)C[S@@](=O)(NC(=O)N[C@H]2C[C@@H]2c2cnn(C)c2)=NC(=O)c2ccc3c(c2)N(C[C@@H]2CC[C@H]21)C[C@@]1(CCCc2cc(Cl)ccc21)CO3 (single isomer, unassigned) [Example 184] | 47.2 nM | 0.108 nM | 
11 | CO[C@H]1/C=C/C[C@H](C)C[S@@](=O)(NC(=O)N[C@H]2C[C@@H]2OC)=NC(=O)c2ccc3c(c2)N(C[C@@H]2CC[C@H]21)C[C@@]1(CCCc2cc(Cl)ccc21)CO3 (single isomer, unassigned) [Example 195] | 29.6 nM | 0.036 nM | 
12 | CO[C@H]1/C=C/C[C@H](C)C[S@@](=O)(NC(=O)N[C@@H]2C[C@H]2OC)=NC(=O)c2ccc3c(c2)N(C[C@@H]2CC[C@H]21)C[C@@]1(CCCc2cc(Cl)ccc21)CO3 (single isomer, unassigned) [Example 196] | 99.2 nM | 0.04 nM | 
13 | CO[C@H]1/C=C/C[C@H](C)C[S@@](=O)(NC(=O)N[C@@H]2C[C@H]2CC(F)F)=NC(=O)c2ccc3c(c2)N(C[C@@H]2CC[C@H]21)C[C@@]1(CCCc2cc(Cl)ccc21)CO3 (single isomer, unassigned) [Example 281] | 184 nM | 0.154 nM | 
14 | CO[C@H]1/C=C/C[C@H](C)C[S@@](=O)(NC(=O)NC2CC2CC(F)F)=NC(=O)c2ccc3c(c2)N(C[C@@H]2CC[C@H]21)C[C@@]1(CCCc2cc(Cl)ccc21)CO3 (single isomer, unassigned) [Example 282] | 28.7 nM | 0.086 nM | 
15 | CO[C@H]1/C=C/C[C@H](C)C[S@@](=O)(NC(=O)N[C@@H]2C[C@]2(C)OC)=NC(=O)c2ccc3c(c2)N(C[C@@H]2CC[C@H]21)C[C@@]1(CCCc2cc(Cl)ccc21)CO3 (single isomer, unassigned) [Example 312] |  | 0.039 nM | 43.5 nM
16 | CO[C@H]1/C=C/C[C@H](C)C[S@@](=O)(NC(=O)N[C@H]2C[C@@]2(C)OC)=NC(=O)c2ccc3c(c2)N(C[C@@H]2CC[C@H]21)C[C@@]1(CCCc2cc(Cl)ccc21)CO3 (single isomer, unassigned) [Example 313] |  | 0.064 nM | 94.5 nM
17 | CO[C@H]1/C=C/C[C@H](C)[C@@H](C)S(=O)(=O)NC(=O)c2ccc3c(c2)N(C[C@@H]2CC[C@H]21)C[C@@]1(CCCc2cc(Cl)ccc21)CO3 [Comparative Example 1, reference compound] | 2190 nM |  | 
18 | CO[C@H]1/C=C/CCC[S@@](N)(=O)=NC(=O)c2ccc3c(c2)N(C[C@@H]2CC[C@H]21)C[C@@]1(CCCc2cc(Cl)ccc21)CO3 [Example 5] | 10000 nM |  | 
19 | CCOC(=O)N[S@]1(=O)=NC(=O)c2ccc3c(c2)N(C[C@@H]2CC[C@H]2[C@@H](OC)/C=C/CCC1)C[C@@]1(CCCc2cc(Cl)ccc21)CO3 [Example 9] | 7780 nM |  | 
20 | CCC(=O)N[S@@]1(=O)=NC(=O)c2ccc3c(c2)N(C[C@@H]2CC[C@H]2[C@@H](OC)CCCCC1)C[C@@]1(CCCc2cc(Cl)ccc21)CO3 [Example 11] | 10000 nM |  | 
21 | CCNC(=O)N[S@@]1(=O)=NC(=O)c2ccc3c(c2)N(C[C@@H]2CC[C@H]2[C@@H](OC)CCCCC1)C[C@@]1(CCCc2cc(Cl)ccc21)CO3 [Example 13] | 3270 nM |  | 
22 | CCNC(=O)N[S@@]1(=O)=NC(=O)c2ccc3c(c2)N(C[C@@H]2CC[C@H]2[C@@H](OC)CCCCC1)C[C@@]1(CCCc2cc(Cl)ccc21)CO3 [Example 14] | 356 nM |  | 
23 | CCC(=O)N[S@@]1(=O)=NC(=O)c2ccc3c(c2)N(C[C@@H]2CC[C@H]2[C@@H](OC)CCCCC1)C[C@@]1(CCCc2ccccc21)CO3 [Example 16] | 10000 nM |  | 
24 | CCC(=O)N[S@@]1(=O)=NC(=O)c2ccc3c(c2)N(C[C@@H]2CC[C@H]2[C@@H](O)/C=C/CCC1)C[C@@]1(CCCc2cc(Cl)ccc21)CO3 [Example 62] | 2430 nM |  | 
25 | CCC(=O)N[S@]1(=O)=NC(=O)c2ccc3c(c2)N(C[C@@H]2CC[C@H]2[C@@H](O)/C=C/CCC1)C[C@@]1(CCCc2cc(Cl)ccc21)CO3 [Example 63] | 9710 nM |  | 
26 | CCC(=O)N[S@]1(=O)=NC(=O)c2ccc3c(c2)N(C[C@@H]2CC[C@H]2[C@@H](OC)/C=C/CCCC1)C[C@@]1(CCCc2cc(Cl)ccc21)CO3 [Example 69] | 7800 nM |  | 
27 | CO[C@H]1/C=C/C[C@H](C)[C@@H](C)[S@@](=O)(NC(=O)c2cnn(C3COC3)c2)=NC(=O)c2ccc3c(c2)N(C[C@@H]2CC[C@H]21)C[C@@]1(CCCc2cc(Cl)ccc21)CO3 [Example 152] | 55.7 nM |  | 
28 | COC1Cc2cc(C(=O)N[S@@]3(=O)=NC(=O)c4ccc5c(c4)N(C[C@@H]4CC[C@H]4[C@@H](OC)/C=C/C[C@H](C)C3)C[C@@]3(CCCc4cc(Cl)ccc43)CO5)cn2C1 (stereo partly drawn) [Example 205] | 58.9 nM |  | 
29 | CO[C@H]1/C=C/C[C@H](C)[C@@H](C)[S@@](=O)(NC(=O)C(F)(F)F)=NC(=O)c2ccc3c(c2)N(C[C@@H]2CC[C@H]21)C[C@@]1(CCCc2cc(Cl)ccc21)CO3 [Example 370] |  |  | 5800 nM
30 | CO[C@H]1/C=C/C[C@H](C)C[S@@](=O)(NC(=O)C2CC(OC(F)F)C2)=NC(=O)c2ccc3c(c2)N(C[C@@H]2CC[C@H]21)C[C@@]1(CCCc2cc(Cl)ccc21)CO3 (stereo partly drawn) [Example 431] |  |  | 233 nM
